The supplement of paper PMC11451515

Test system: P12-Ichikawa
Experiment: cell viability relative to DMSO control; higher = less cytotoxic
Settings: 48 h
Outline: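 Three leukemia lines were tested: NOMO1 and SEM at 500 cells/well and P12-Ichikawa at 1000 cells/well. Each was adapted for at least four passages in each medium and seeded in 5 μl in 1536-well plates, and library compounds in DMSO were pin-dosed from 47 μM to 0.79 nM in 11 threefold steps. After 48 h at 37°C, CellTiter-Glo One luminescence was read. Viability is a percentage relative to DMSO wells on each plate, with cell-free wells as background.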

[1] = HPLM + 10% dialyzed FBS, 0.000781 µM
[2] = HPLM + 10% dialyzed FBS, 0.00234 µM
[3] = HPLM + 10% dialyzed FBS, 0.00702 µM
[4] = HPLM + 10% dialyzed FBS, 0.0211 µM
[5] = HPLM + 10% dialyzed FBS, 0.0632 µM
[6] = HPLM + 10% dialyzed FBS, 0.19 µM
[7] = HPLM + 10% dialyzed FBS, 0.569 µM
[8] = HPLM + 10% dialyzed FBS, 1.71 µM
[9] = HPLM + 10% dialyzed FBS, 5.12 µM
[10] = HPLM + 10% dialyzed FBS, 15.4 µM
[11] = HPLM + 10% dialyzed FBS, 46.1 µM
[12] = RPMI 5 mM glucose + 10% FBS, 0.000781 µM
[13] = RPMI 5 mM glucose + 10% FBS, 0.00234 µM
[14] = RPMI 5 mM glucose + 10% FBS, 0.00702 µM
[15] = RPMI 5 mM glucose + 10% FBS, 0.0211 µM
[16] = RPMI 5 mM glucose + 10% FBS, 0.0632 µM
[17] = RPMI 5 mM glucose + 10% FBS, 0.19 µM
[18] = RPMI 5 mM glucose + 10% FBS, 0.569 µM
[19] = RPMI 5 mM glucose + 10% FBS, 1.71 µM
[20] = RPMI 5 mM glucose + 10% FBS, 5.12 µM
[21] = RPMI 5 mM glucose + 10% FBS, 15.4 µM
[22] = RPMI 5 mM glucose + 10% FBS, 46.1 µM
[23] = RPMI 5 mM glucose + 10% dialyzed FBS, 0.000781 µM
[24] = RPMI 5 mM glucose + 10% dialyzed FBS, 0.00234 µM
[25] = RPMI 5 mM glucose + 10% dialyzed FBS, 0.00702 µM
[26] = RPMI 5 mM glucose + 10% dialyzed FBS, 0.0211 µM
[27] = RPMI 5 mM glucose + 10% dialyzed FBS, 0.0632 µM
[28] = RPMI 5 mM glucose + 10% dialyzed FBS, 0.19 µM
[29] = RPMI 5 mM glucose + 10% dialyzed FBS, 0.569 µM
[30] = RPMI 5 mM glucose + 10% dialyzed FBS, 1.71 µM
[31] = RPMI 5 mM glucose + 10% dialyzed FBS, 5.12 µM
[32] = RPMI 5 mM glucose + 10% dialyzed FBS, 15.4 µM
[33] = RPMI 5 mM glucose + 10% dialyzed FBS, 46.1 µM

Compound	cell viability [1]	cell viability [2]	cell viability [3]	cell viability [4]	cell viability [5]	cell viability [6]	cell viability [7]	cell viability [8]	cell viability [9]	cell viability [10]	cell viability [11]	cell viability [12]	cell viability [13]	cell viability [14]	cell viability [15]	cell viability [16]	cell viability [17]	cell viability [18]	cell viability [19]	cell viability [20]	cell viability [21]	cell viability [22]	cell viability [23]	cell viability [24]	cell viability [25]	cell viability [26]	cell viability [27]	cell viability [28]	cell viability [29]	cell viability [30]	cell viability [31]	cell viability [32]	cell viability [33]
CCc1nc(C(N)=O)c(Nc2ccc(N3CCC(N4CCN(C)CC4)CC3)c(OC)c2)nc1NC1CCOCC1	106%	103%	111%	111%	114%	97.4%	97.7%	102%	91.7%	75.1%	52.6%	103%	101%	109%	117%	112%	100%	98.7%	102%	88.9%	71.1%	52.3%	110%	109%	123%	111%	131%	104%	108%	110%	94.8%	75.9%	42.1%
CC(C)(OCc1nn(Cc2ccccc2)c2ccccc12)C(=O)O	104%	101%	101%	104%	102%	96%	103%	101%	101%	96.3%	105%	99.3%	92.4%	104%	95.9%	101%	88.6%	98.6%	94.9%	96.2%	92.8%	94.5%	97.1%	89.1%	95.8%	90.1%	92.6%	84.6%	87.9%	89.3%	88.8%	85.8%	85%
CN1CCN(c2cc(C(=O)Nc3ccc4c(c3)-c3c(c(C(N)=O)nn3-c3ccc(F)cc3)CC4)c(Cl)cn2)CC1	115%	109%	102%	114%	114%	107%	105%	98.1%	104%	95%	3.56%	113%	111%	116%	113%	109%	120%	107%	102%	103%	104%	12%	113%	107%	122%	111%	124%	109%	105%	100%	104%	102%	5.67%
O=C(O)CCc1ccc(NCc2cccc(Oc3ccccc3)c2)cc1	94.5%	107%	102%	104%	105%	111%	108%	109%	108%	119%	104%	99.3%	105%	111%	105%	118%	111%	109%	109%	110%	122%	118%	88.6%	96.5%	103%	110%	103%	104%	103%	104%	100%	98.6%	99.9%
COC(=O)Nc1nc2cc(Sc3ccccc3)ccc2[nH]1	124%	115%	119%	108%	112%	114%	111%	96%	19.5%	25.2%	31.8%	112%	113%	118%	111%	113%	124%	115%	97.6%	16.8%	29.3%	28.7%	101%	109%	120%	114%	113%	111%	102%	90%	24.5%	30.4%	35.5%
CNC(=O)c1cc(COc2nnc(Nc3ccc(Cl)cc3)c3ccoc23)ccn1	119%	109%	110%	105%	106%	113%	105%	103%	106%	101%	89.4%	117%	116%	118%	115%	116%	113%	112%	110%	105%	107%	102%	114%	130%	108%	114%	104%	115%	116%	100%	111%	101%	97.4%
CC1(C)NC(=O)N(c2ccc([N+](=O)[O-])c(C(F)(F)F)c2)C1=O	96.1%	87.3%	90.1%	89.5%	101%	90.9%	89.6%	87.8%	77.1%	85.2%	80%	88.4%	82.8%	82.5%	95.2%	96.2%	92%	90.1%	74.9%	82.8%	82.9%	75.8%	77.6%	81%	75.6%	80%	83.4%	85.7%	78.4%	77.2%	70.7%	75%	67.8%
O=C(/C=C/c1cccnc1)NCCCCC1CCN(C(=O)c2ccccc2)CC1	103%	72.1%	15.1%	7.38%	5.18%	4.94%	4.8%	4.59%	4.4%	4%	2.9%	103%	109%	16.9%	6.84%	5.28%	5.01%	4.19%	4.32%	3.69%	2.71%	1.74%	102%	109%	24.4%	8.02%	5.06%	4.88%	4.59%	4.67%	3.92%	2.96%	2.11%
CC=CC1=C(C(=O)O)N2C(=O)[C@@H](NC(=O)[C@H](N)c3ccc(O)cc3)[C@H]2SC1.O	97.8%	110%	121%	105%	126%	90%	116%	111%	113%	13.8%	15%	88.6%	103%	111%	109%	120%	115%	104%	112%	107%	17.7%	13.7%	100%	108%	107%	113%	118%	109%	110%	116%	114%	45.3%	18.8%
COc1cc([C@@H]2c3cc4c(cc3[C@@H](O)C3COC(=O)C32)OCO4)cc(OC)c1O (some centres undefined)	86.8%	92.3%	88.4%	9.03%	95.5%	38.3%	9.82%	8.57%	5.22%	5.25%	4.78%	80.2%		92.1%	10.5%	102%	56.8%	14.4%	7.77%	6.85%	4.81%	5.33%	77.1%	91.5%	94.6%	22.6%	94.5%	63.7%	19%	12.9%	9.44%	7.81%	5.82%
COc1ccccc1OCC(O)CN1CCN(CC(=O)Nc2c(C)cccc2C)CC1 (centres undefined)	122%	119%	127%	127%	130%	132%	135%	132%	140%	112%	110%																						
CO[C@H]1C[C@H]2OC[C@@]2(OC(C)=O)[C@H]3[C@H](OC(=O)C4=CC=CC=C4)[C@]5(O)C[C@H](OC(=O)[C@H](O)[C@@H](NC(=O)OC(C)(C)C)C6=CC=CC=C6)/C(=C(/[C@@H](OC)C(=O)[C@]13C)C5(C)C)C	78.2%	87.6%	29.3%	28.4%	19%	18.9%	18.8%	20.1%	12.1%	13.4%	7.21%	69.9%	81.6%	70.8%	30.4%	11.6%	15.3%	15.2%	15.9%	10.5%	10.6%	10.8%	73.7%	71.1%	67.9%	34.5%	28%	27.7%	24.2%	26.1%	20.2%	21%	11.9%
c1cc(N[C@@H]2CCNC2)nc(-c2cnc3ccc(-c4cn[nH]c4)cn23)c1	116%	121%	122%	123%	131%	130%	135%	136%	132%	120%	104%																						
CN(C)Cc1cccc(N/C(=C2\C(=O)Nc3cc(C(=O)N(C)C)ccc32)c2ccccc2)c1	95.7%	105%	110%	101%	119%	114%	111%	115%	103%	93.2%	42.3%	90.7%	114%	108%	109%	114%	111%	113%	106%	96%	90.3%	65%	100%	111%	111%	117%	120%	111%	114%	118%	103%	98.2%	64.4%
NC(=O)c1ncn([C@@H]2O[C@H](CO)[C@@H](O)[C@H]2O)c1N	120%	124%	120%	119%	122%	121%	122%	117%	115%	115%	104%																						
O=C(c1ccc(C(=O)N2CCC(N3CCCC3)CC2)c(Nc2ccccc2)c1)N1CCC(N2CCCC2)CC1	103%	103%	103%	106%	108%	102%	106%	109%	98.9%	96.5%	94.5%	104%	95.3%	93.7%	101%	98.1%	100%	95.8%	97.4%	100%	92.1%	95.4%	98.3%	97.5%	95.9%	96.3%	100%	101%	103%	101%	91.1%	96.1%	86.1%
NC(=O)Cc1cccc(C(=O)c2ccccc2)c1N	101%	103%	103%	92.6%	110%	111%	103%	106%	97.7%	98.6%	95.6%	100%	96.6%	102%	86.9%	106%	94.3%	97%	96.2%	99%	85.3%	82.9%	102%	101%	101%	85.2%	96.1%	98.3%	101%	99.3%	101%	87.7%	85.2%
